Activity calls are given as the source filed them. No stated cut-off is given here; in the data, actives have a measured IC50 and inactives only a lower limit.

The assay deals with Envelope glycoprotein gp160 (Human immunodeficiency virus 1, UniProt Q6QLK5). The assay is described as follows: cell-free HIV fusion peptide-binding blockers – biochemical, uHTS, fluorescence dequenching, […] (AID 1986).
Envelope glycoprotein gp160, sequence (Q6QLK5 whole entry, the tested form may be a part): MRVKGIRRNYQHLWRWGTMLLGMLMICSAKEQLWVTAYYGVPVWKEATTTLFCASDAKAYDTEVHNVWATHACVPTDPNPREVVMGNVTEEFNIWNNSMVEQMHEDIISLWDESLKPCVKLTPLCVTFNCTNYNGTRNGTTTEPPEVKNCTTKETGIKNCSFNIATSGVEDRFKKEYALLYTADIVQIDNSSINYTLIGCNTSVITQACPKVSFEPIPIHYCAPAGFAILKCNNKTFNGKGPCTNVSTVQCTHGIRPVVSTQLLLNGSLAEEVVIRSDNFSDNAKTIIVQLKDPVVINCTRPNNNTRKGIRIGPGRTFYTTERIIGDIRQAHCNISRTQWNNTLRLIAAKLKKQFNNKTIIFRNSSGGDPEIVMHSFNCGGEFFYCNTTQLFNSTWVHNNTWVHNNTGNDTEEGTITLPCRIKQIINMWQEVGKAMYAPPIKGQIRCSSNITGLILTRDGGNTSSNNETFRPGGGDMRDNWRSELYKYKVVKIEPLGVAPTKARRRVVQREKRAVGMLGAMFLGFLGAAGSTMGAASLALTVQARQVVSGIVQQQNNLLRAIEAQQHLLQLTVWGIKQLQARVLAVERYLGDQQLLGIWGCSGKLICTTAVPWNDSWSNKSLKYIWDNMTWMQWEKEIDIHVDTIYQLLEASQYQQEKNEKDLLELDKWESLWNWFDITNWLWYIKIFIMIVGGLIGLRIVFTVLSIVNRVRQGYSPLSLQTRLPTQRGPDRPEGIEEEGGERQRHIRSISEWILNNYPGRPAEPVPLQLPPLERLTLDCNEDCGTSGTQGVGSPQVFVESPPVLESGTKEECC

Turning to `CCc1nnc(NS(=O)(=O)c2ccc(NC(=S)NC(=O)/C=C/c3cccs3)cc2)s1`, the half-maximal inhibitory concentration (IC50) (in general, the concentration that inhibits the measured activity by half) was 22.6 µM (active).

For the origin of these results see ChEMBL document CHEMBL1201862, “PubChem BioAssay data set” (2004).
